Each compound was assayed on Staphylococcus aureus (assay: Antibacterial activity against Staphylococcus aureus ATCC 29213 assessed as reduction in microbial growth measured for 16 to 20 hrs by microdilution assay). Settings: time 16-20 hrs.
Assay type: functional

| SMILES | MIC [µM] |
| --- | --- |
| [C-]#[N+]c1ccc(NC(=O)CCc2cccnc2)cc1 | > 8 |
| [C-]#[N+]c1ccc(NC(=O)c2ccccc2)cc1 | > 8 |
| [C-]#[N+]c1ccc(NC(=O)c2cccnc2)cc1 | > 8 |
| N#Cc1ccc(NC(=O)Cc2ccccc2)cc1 | > 8 |
| [C-]#[N+]c1ccc(NC(=O)CCc2ccc([N+](=O)[O-])cc2)cc1 | > 8 |
| [C-]#[N+]c1ccc(NC(=O)CC2CCCCC2)cc1 | > 8 |
| [C-]#[N+]c1ccc(NC(=O)Cc2ccccc2Cl)cc1 | > 8 |
| CN(C)[C@@H]1C(O)=C(C(N)=O)C(=O)[C@@]2(O)C(O)=C3C(=O)c4c(O)cccc4[C@@](C)(O)[C@H]3C[C@@H]12 [TETRACYCLINE] | 1.13 |
| [C-]#[N+]c1ccc(NC(=O)Cc2c[nH]c3ccccc23)cc1 | > 8 |

Each compound was assayed on Staphylococcus aureus (assay: Antibacterial activity against methicillin-resistant Staphylococcus aureus ATCC 43300 assessed as reduction in microbial growth measured for 16 to 20 hrs by microdilution assay). Settings: time 16-20 hrs.
Assay type: functional

| SMILES | MIC [µM] |
| --- | --- |
| [C-]#[N+]c1ccc(NC(=O)CCc2ccc([N+](=O)[O-])cc2)cc1 | 8 |
| CN(C)[C@@H]1C(O)=C(C(N)=O)C(=O)[C@@]2(O)C(O)=C3C(=O)c4c(O)cccc4[C@@](C)(O)[C@H]3C[C@@H]12 [TETRACYCLINE] | 1.13 |

The compounds below were run on Staphylococcus epidermidis (assay: Antibacterial activity against Staphylococcus epidermidis ATCC 12228 assessed as reduction in microbial growth measured for 16 to 20 hrs by microdilution assay). Settings: time 16-20 hrs.
Assay type: functional

| SMILES | MIC [µM] |
| --- | --- |
| [C-]#[N+]c1ccc(NC(=O)CCc2ccc([N+](=O)[O-])cc2)cc1 | 2 |
| CN(C)[C@@H]1C(O)=C(C(N)=O)C(=O)[C@@]2(O)C(O)=C3C(=O)c4c(O)cccc4[C@@](C)(O)[C@H]3C[C@@H]12 [TETRACYCLINE] | > 4.52 |

What follows are compounds tested on Staphylococcus epidermidis (assay: Antibacterial activity against Staphylococcus epidermidis ATCC 49134 assessed as reduction in microbial growth measured for 16 to 20 hrs by microdilution assay). Settings: time 16-20 hrs.
Assay type: functional

| SMILES | MIC [µM] |
| --- | --- |
| [C-]#[N+]c1ccc(NC(=O)CCc2ccc([N+](=O)[O-])cc2)cc1 | 2 |
| CN(C)[C@@H]1C(O)=C(C(N)=O)C(=O)[C@@]2(O)C(O)=C3C(=O)c4c(O)cccc4[C@@](C)(O)[C@H]3C[C@@H]12 [TETRACYCLINE] | 0.27 |

The compounds below were run on Klebsiella pneumoniae (assay: Antibacterial activity against Klebsiella pneumoniae ATCC 700603 assessed as inhibition of bacterial growth measured for 16 to 20 hrs by microdilution assay). Settings: time 16-20 hrs.
Assay type: functional

| SMILES | MIC [µM] |
| --- | --- |
| [C-]#[N+]c1ccc(NC(=O)CCc2cccnc2)cc1 | ≥ 64 |
| [C-]#[N+]c1ccc(NC(=O)c2ccccc2)cc1 | ≥ 64 |
| [C-]#[N+]c1ccc(NC(=O)c2cccnc2)cc1 | ≥ 64 |
| N#Cc1ccc(NC(=O)Cc2ccccc2)cc1 | ≥ 64 |
| [C-]#[N+]c1ccc(NC(=O)CCc2ccc([N+](=O)[O-])cc2)cc1 | ≥ 64 |
| [C-]#[N+]c1ccc(NC(=O)CC2CCCCC2)cc1 | ≥ 64 |
| [C-]#[N+]c1ccc(NC(=O)Cc2ccccc2Cl)cc1 | ≥ 64 |
| [C-]#[N+]c1ccc(NC(=O)Cc2c[nH]c3ccccc23)cc1 | ≥ 64 |

The compounds below were run on Staphylococcus epidermidis (assay: Antibacterial activity against Staphylococcus epidermidis ATCC 35984 assessed as reduction in microbial growth measured for 16 to 20 hrs by microdilution assay). Settings: time 16-20 hrs.
Assay type: functional

| SMILES | MIC [µM] |
| --- | --- |
| [C-]#[N+]c1ccc(NC(=O)CCc2ccc([N+](=O)[O-])cc2)cc1 | 1 |
| CN(C)[C@@H]1C(O)=C(C(N)=O)C(=O)[C@@]2(O)C(O)=C3C(=O)c4c(O)cccc4[C@@](C)(O)[C@H]3C[C@@H]12 [TETRACYCLINE] | 4.52 |

What follows are compounds tested on Staphylococcus aureus (assay: Antibacterial activity against Staphylococcus aureus ATCC 6538 assessed as reduction in microbial growth measured for 16 to 20 hrs by microdilution assay). Settings: time 16-20 hrs.
Assay type: functional

| SMILES | MIC [µM] |
| --- | --- |
| [C-]#[N+]c1ccc(NC(=O)CCc2cccnc2)cc1 | > 8 |
| [C-]#[N+]c1ccc(NC(=O)c2ccccc2)cc1 | > 8 |
| [C-]#[N+]c1ccc(NC(=O)c2cccnc2)cc1 | > 8 |
| N#Cc1ccc(NC(=O)Cc2ccccc2)cc1 | > 8 |
| [C-]#[N+]c1ccc(NC(=O)CCc2ccc([N+](=O)[O-])cc2)cc1 | > 8 |
| [C-]#[N+]c1ccc(NC(=O)CC2CCCCC2)cc1 | > 8 |
| [C-]#[N+]c1ccc(NC(=O)Cc2ccccc2Cl)cc1 | > 8 |
| CN(C)[C@@H]1C(O)=C(C(N)=O)C(=O)[C@@]2(O)C(O)=C3C(=O)c4c(O)cccc4[C@@](C)(O)[C@H]3C[C@@H]12 [TETRACYCLINE] | 1.13 |
| [C-]#[N+]c1ccc(NC(=O)Cc2c[nH]c3ccccc23)cc1 | > 8 |

What follows are compounds tested on Staphylococcus aureus (assay: Antibacterial activity against Staphylococcus aureus ATCC 25923 assessed as reduction in microbial growth measured for 16 to 20 hrs by microdilution assay). Settings: time 16-20 hrs.
Assay type: functional

| SMILES | MIC [µM] |
| --- | --- |
| [C-]#[N+]c1ccc(NC(=O)CCc2cccnc2)cc1 | > 8 |
| [C-]#[N+]c1ccc(NC(=O)c2ccccc2)cc1 | > 8 |
| [C-]#[N+]c1ccc(NC(=O)c2cccnc2)cc1 | > 8 |
| N#Cc1ccc(NC(=O)Cc2ccccc2)cc1 | > 8 |
| [C-]#[N+]c1ccc(NC(=O)CCc2ccc([N+](=O)[O-])cc2)cc1 | 4 |
| [C-]#[N+]c1ccc(NC(=O)CC2CCCCC2)cc1 | > 8 |
| [C-]#[N+]c1ccc(NC(=O)Cc2ccccc2Cl)cc1 | > 8 |
| CN(C)[C@@H]1C(O)=C(C(N)=O)C(=O)[C@@]2(O)C(O)=C3C(=O)c4c(O)cccc4[C@@](C)(O)[C@H]3C[C@@H]12 [TETRACYCLINE] | 1.13 |
| [C-]#[N+]c1ccc(NC(=O)Cc2c[nH]c3ccccc23)cc1 | > 8 |

The compounds below were run on Pseudomonas aeruginosa (assay: Antibacterial activity against Pseudomonas aeruginosa ATCC 10145 assessed as inhibition of bacterial growth measured for 16 to 20 hrs by microdilution assay). Settings: time 16-20 hrs.
Assay type: functional

| SMILES | MIC [µM] |
| --- | --- |
| [C-]#[N+]c1ccc(NC(=O)CCc2cccnc2)cc1 | ≥ 64 |
| [C-]#[N+]c1ccc(NC(=O)c2ccccc2)cc1 | ≥ 64 |
| [C-]#[N+]c1ccc(NC(=O)c2cccnc2)cc1 | ≥ 64 |
| N#Cc1ccc(NC(=O)Cc2ccccc2)cc1 | ≥ 64 |
| [C-]#[N+]c1ccc(NC(=O)CCc2ccc([N+](=O)[O-])cc2)cc1 | ≥ 64 |
| [C-]#[N+]c1ccc(NC(=O)CC2CCCCC2)cc1 | ≥ 64 |
| [C-]#[N+]c1ccc(NC(=O)Cc2ccccc2Cl)cc1 | ≥ 64 |
| [C-]#[N+]c1ccc(NC(=O)Cc2c[nH]c3ccccc23)cc1 | ≥ 64 |

These compounds were tested on Staphylococcus aureus (assay: Antibacterial activity against methicillin-resistant Staphylococcus aureus ATCC 33592 assessed as reduction in microbial growth measured for 16 to 20 hrs by microdilution assay). Settings: time 16-20 hrs.
Assay type: functional

| SMILES | MIC [µM] |
| --- | --- |
| [C-]#[N+]c1ccc(NC(=O)CCc2ccc([N+](=O)[O-])cc2)cc1 | > 8 |
| CN(C)[C@@H]1C(O)=C(C(N)=O)C(=O)[C@@]2(O)C(O)=C3C(=O)c4c(O)cccc4[C@@](C)(O)[C@H]3C[C@@H]12 [TETRACYCLINE] | > 4.52 |

These compounds were tested on Escherichia coli (assay: Antibacterial activity against Escherichia coli ATCC 25922 assessed as inhibition of bacterial growth measured for 16 to 20 hrs by microdilution assay). Settings: time 16-20 hrs.
Assay type: functional

| SMILES | MIC [µM] |
| --- | --- |
| [C-]#[N+]c1ccc(NC(=O)CCc2cccnc2)cc1 | ≥ 64 |
| [C-]#[N+]c1ccc(NC(=O)c2ccccc2)cc1 | ≥ 64 |
| [C-]#[N+]c1ccc(NC(=O)c2cccnc2)cc1 | ≥ 64 |
| N#Cc1ccc(NC(=O)Cc2ccccc2)cc1 | ≥ 64 |
| [C-]#[N+]c1ccc(NC(=O)CCc2ccc([N+](=O)[O-])cc2)cc1 | ≥ 64 |
| [C-]#[N+]c1ccc(NC(=O)CC2CCCCC2)cc1 | ≥ 64 |
| [C-]#[N+]c1ccc(NC(=O)Cc2ccccc2Cl)cc1 | ≥ 64 |
| [C-]#[N+]c1ccc(NC(=O)Cc2c[nH]c3ccccc23)cc1 | ≥ 64 |
